From paper PMC12314070 (Nature Communications, 2025)
≈ marks a conversion by molar mass, not a printed value. Positions of bridges follow the written chain, without caps; N, C: chain ends. Non-standard residues stand in square brackets, D forms with d. Residues, ends and D or L forms follow the SMILES beside them. *: point of attachment. X1 = CC[C@H](C)CCCCC(=O)*; Dab = NCC[C@H](N)C(=O)O

Columns and labels:
S. aureus USA 300 = test: MIC assay; format: cell-based, Staphylococcus aureus; settings: Table 1, Met^R, MDR
A. baumannii BNCC 194496 = test: MIC assay; format: cell-based, Acinetobacter baumannii; settings: Table 1, Cip^R
[1] = tested on: A. baumannii BNCC194496-mcr-1; test: MIC assay; format: cell-based; settings: Acinetobacter baumannii, BNCC194496MCR1
S. aureus BNCC 186335 = test: MIC assay; format: cell-based; settings: Staphylococcus aureus, BNCC186335, Table 1, Azm^R, Pen^R
E. Coli MG1655-mcr-1 = test: Neutropenic thigh infection model; format: in vivo, mice; settings: colistin resistant E. coli thigh infection, 20 mg/kg once daily s.c.

For `COc1cccc(OC)c1C(=O)N[C@@H]1C(=O)N2[C@@H]1SC(C)(C)[C@@H]2C(=O)O` [Methicillin], the MIC (S. aureus USA 300) was >64 µg/mL.
For `CO/N=C(\C(=O)N[C@@H]1C(=O)N2C(C(=O)O)=CCS[C@H]12)c1csc(N)n1` [Ceftizoxime], the MIC (A. baumannii BNCC 194496) was 4 µg/mL (≈ 10.4 µM) and the MIC [1] was 4 µg/mL (≈ 10.4 µM).
For `CN[C@H](CC(C)C)C(=O)N[C@H]1C(=O)N[C@@H](CC(N)=O)C(=O)N[C@H]2C(=O)N[C@H]3C(=O)N[C@H](C(=O)N[C@H](C(=O)O)c4cc(O)cc(O)c4-c4cc3ccc4O)[C@H](O)c3ccc(c(Cl)c3)Oc3cc2cc(c3O[C@@H]2O[C@H](CO)[C@@H](O)[C@H](O)[C@H]2O[C@H]2C[C@](C)(N)[C@H](O)[C@H](C)O2)Oc2ccc(cc2Cl)[C@H]1O` [Vancomycin], the MIC (S. aureus BNCC 186335) was 0.5 µg/mL (≈ 0.345 µM) and the MIC (S. aureus USA 300) was 1 µg/mL (≈ 0.69 µM).
With `CC[C@H](C)CCCCC(=O)N[C@@H](CCN)C(=O)N[C@H](C(=O)N[C@@H](CCN)C(=O)N[C@H]1CCNC(=O)[C@H]([C@@H](C)O)NC(=O)[C@H](CCN)NC(=O)[C@H](CCN)NC(=O)[C@H](CC(C)C)NC(=O)[C@@H](CC(C)C)NC(=O)[C@H](CCN)NC1=O)[C@@H](C)O` [Colistin] (X1-[Dab]T[Dab][Dab][Dab][dL]L[Dab][Dab]T; lactam 4-C; N-terminus assumed) the “reduction of bacterial burden” value (E. Coli MG1655-mcr-1) was “no activity”.
